How the values were obtained:
leukemia L1210 cells = assay: Leukemia L1210 in mice: ascitic fluid and survival (Example 14); conditions: for Accumulation of ascitic (weight gain, %): leukemia L1210
Protocol: An influence of 7 day course of test article daily administration was studied in respect of tumor progression, which was estimated using the two integral indices: pace of mouse weight gain due to accumulation of ascitic fluid, and by animal mean survival time after inoculation.
The study was carried out on DBA/2 mice weighing 18-21 g. First, tumor cell passage was performed using 6 animals for each cell line. For this, cells kept at the temperature of the liquid nitrogen were de-frozen and adjusted to the concentration of 5×10^6 cells/mL by sterile Hanks' solution. Then, 6 mice were intra peritoneally inoculated with 0.2 mL of each line cellular suspension.
Ascitic fluid was collected 6 days after the inoculation with L1210 cells, 8 days after the inoculation with P388 ones and 18 days after inoculation with Erlich adenocarcinoma cells. Thus obtained, the samples of passaged tumor cells were used for the main experiments. The fluid liquid was dissolved by sterile Hanks' solution so that cell concentration be 5×10^6 cells/mL for P388 cells and Erlich adenocarcinoma cells, 5×10^5 cells/mL for L1210 cells.
Eleven groups of animals with no less than 15 mice each were formed for experiments with either tumor cell line. Mice were inoculated with 0.2 mL of resultant cell suspensions per mouse (10^6 P388 and Erlich adenocarcinoma cells/mouse, and 10^5 L1210 cells/mouse). 24 hours after the tumor cells inoculation, animals were given the first injections of the test articles or vehicles. The test article injections were made daily till the 14th day of the experiment or till the animal death. The volume of solutions injected comprised 0.01 mL/g body weight.
#1—intact animals receiving imitation of tumor cell inoculation (injection of normal saline) which further were treated with normal saline throughout the entire experiment;
#2—control animals, inoculated with tumor cells, which further were treated with test article vehicle (normal saline);

[1] = test system: Erlich adenocarcinoma cells; assay: Erlich adenocarcinoma in mice: ascitic fluid and survival (Example 14); conditions: for Accumulation of ascitic (weight gain, %): Erlich adenocarcinoma
[2] = test system: e-ras cells after UV-irradiation; assay: Number of clones of e-ras cells after UV-irradiation; type: cell-based, rat
Protocol: (§1) To this end, these substances had been incubated for 72 hours with cells of rat embrional fibroblasts (REF) and the same cells, transformed with adenoviral E1A gene in complementation with ras-oncogene (e-ras cell line). Subsequent evaluation of the cellularity of experimental samples was carried out by counting the quantity of cell per milliliter (for REF cell line) or clones in dish (for e-ras cell line).
(§2) Cells were cultivated on DMEM medium supplemented with 10% fetal calf serum and […] gentamicin. Cultivation was carried out in Petri dishes.
(§3) E-ras cells were seeded at a cell density of 300 cells per 5 cm dish. 7 days after growth of e-ras cells had been started the quantity of clones was evaluated and the test articles were added into the dishes.
(§4) For the test-system for estimation of apoptosis regulation UV-induced cell death was triggered in a dose of 4 Dj. Test articles were added immediately after irradiation. Then, the quantity of cell per milliliter (for REF cell line) or clones in dish (for e-ras cell line) were monitored every 24 hours. For determination of DNA-fragmentation the electrophoresis in agarose gel was used at standard settings.

[3] = test system: rat embrional fibroblasts (REF); assay: Number of REF cells throughout 72-hr incubation; type: cell-based
Protocol: as §1, §2
(§5) REF cells was cultivated with initial density of 800 000 cell per mL, evaluation of the cellularity was performed at 0, 24, 48 and 72 hours of incubation with the test articles.
as §4

[4] = test system: e-ras cell line (REF transformed with E1A and ras-oncogene); assay: Number of clones of e-ras cells throughout 72-hr incubation; type: cell-based, rat
Protocol: as §1, §2, §3, §4

[5] = test system: rat embrional fibroblasts (REF) after UV-irradiation; assay: Number of REF cells after UV-irradiation; type: cell-based
Protocol: as §1, §2, §5, §4

NCCSSCCNC(=O)CNC(=O)C(CSSCC(NC(=O)CCC(N)C(=O)O)C(=O)NCC(=O)O)NC(=O)CCC(N)C(=O)O (stereo not shown) [S-thioethylamine-GSSG + normal saline]
Accumulation of ascitic (weight gain, %) (leukemia L1210 cells; number of injection 0): 0.77 ± 0.2%
Accumulation of ascitic (weight gain, %) (leukemia L1210 cells; number of injection 3): 3.1 ± 0.4%
Accumulation of ascitic (weight gain, %) (leukemia L1210 cells; number of injection 7): 92 ± 1.2%
Mean survival time (leukemia L1210 cells; mice inoculated with leukemia L1210 cells): 19.2 ± 0.8
Accumulation of ascitic (weight gain, %) ([1]; number of injection 0): 0.8 ± 0.1%
Accumulation of ascitic (weight gain, %) ([1]; number of injection 3): 3.2 ± 0.6%
Accumulation of ascitic (weight gain, %) ([1]; number of injection 7): 10.2 ± 2.2%
Mean survival time ([1]; mice inoculated with Erlich adenocarcinoma cells): 16.2 ± 1.2

NCCSSCCNC(=O)CNC(=O)C(CSSCC(NC(=O)CCC(N)C(=O)O)C(=O)NCC(=O)O)NC(=O)CCC(N)C(=O)O (stereo not shown) [S-thioethylamine-GSSG in normal saline]
number of clones of e-ras cells after UV-irradiation (M ± m) ([2]; 0 hours): 286 ± 14
number of clones of e-ras cells after UV-irradiation (M ± m) ([2]; 24 hours): 182 ± 14
number of clones of e-ras cells after UV-irradiation (M ± m) ([2]; 48 hours): 116 ± 8
number of clones of e-ras cells after UV-irradiation (M ± m) ([2]; 72 hours): 82 ± 4
number of REF cells (M ± m) ([3]; 0 hours of incubation): 789 ± 21 × 10^3 cells
number of REF cells (M ± m) ([3]; 24 hours of incubation): 1422 ± 14 × 10^3 cells
number of REF cells (M ± m) ([3]; 48 hours of incubation): 2602 ± 43 × 10^3 cells
number of REF cells (M ± m) ([3]; 72 hours of incubation): 5112 ± 168 × 10^3 cells
number of clones of e-ras cells (M ± m) ([4]; 0 hours of incubation): 286 ± 14
number of clones of e-ras cells (M ± m) ([4]; 24 hours of incubation): 202 ± 14
number of clones of e-ras cells (M ± m) ([4]; 48 hours of incubation): 156 ± 10
number of clones of e-ras cells (M ± m) ([4]; 72 hours of incubation): 112 ± 12
number of REF cells after UV-irradiation (M ± m) ([5]; 0 hours): 789 ± 21 × 10^3 cells
number of REF cells after UV-irradiation (M ± m) ([5]; 24 hours): 422 ± 14 × 10^3 cells
number of REF cells after UV-irradiation (M ± m) ([5]; 48 hours): 260 ± 23 × 10^3 cells
number of REF cells after UV-irradiation (M ± m) ([5]; 72 hours): 212 ± 16 × 10^3 cells

NCCSSCCNC(=O)CNC(=O)C(CSSCC(NC(=O)CCC(N)C(=O)O)C(=O)NCC(=O)O)NC(=O)CCC(N)C(=O)O (stereo not shown) [S-thioethylamine-GSSG, S-thioethylamine-glutathione disulfide]
death of transformed e-ras cells after UV-irradiation [2]: potentiate death of the transformed cells
apoptosis of normal cells (REF line) ([3]; 72-hr incubation): didn't promote apoptosis of normal cells
death of transformed e-ras cells ([4]; 72-hr incubation): induce a transformed cell death
UV-induced apoptosis of normal cells (REF line) [5]: do not promote the apoptosis of normal cells

Source: US6492329B1, “Cytokine and hemopoietic factor endogenous production enhancer and methods of use thereof” (Novelos Therapeutics, Inc., priority 1995, dated 2002)
